# Assay results published in US11693005B2, “Methods for identifying treatments that reduce the actions of substances of abuse and addiction” (Florida Atlantic University Board of Trustees, priority 2018, dated 2023).
# Entries after “also recorded” stand apart in the source; their conditions may differ.
# Assays:
# MBLAC1 [1] = target: T1, MBLAC1 (Mus musculus, UniProt Q8BWY4); assay: BSI binding to mouse frontal cortex lysates, with and without MBLAC1 immunodepletion
# T1 construct: from tissue; host or cells: mouse (C57BL/6J) frontal cortex, 100,000 x g supernatant
# T1 sequence (Q8BWY4 1-260): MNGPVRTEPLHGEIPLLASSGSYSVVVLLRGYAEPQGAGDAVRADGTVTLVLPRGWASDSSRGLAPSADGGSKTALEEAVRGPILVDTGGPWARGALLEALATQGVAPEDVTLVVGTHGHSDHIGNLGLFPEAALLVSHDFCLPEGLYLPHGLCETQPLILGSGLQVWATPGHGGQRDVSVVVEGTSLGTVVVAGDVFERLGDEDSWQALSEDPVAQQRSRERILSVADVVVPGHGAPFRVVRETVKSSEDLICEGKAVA
# Procedure: Wild type C57BL/6J mice (Jackson Labs, Bar Harbor, Me.) were rapidly decapitated and frontal cortex was dissected. Tissue was homogenized in ice cold 20 mM HEPES buffer (pH 7.4) using a Dounce homogenizer (Wheaton, Millville, N.J.), and then sonicated (F60 sonic dismembrator, Fisher Scientific, Waltham, Mass.) using 5, 1 sec pulses. Lysates were then centrifuged at 100,000×g for 30 min. Supernatants were collected, diluted with 2× lysis buffer (40 mM HEPES, 220 mM KCl, 20 mM NaCl, 4 mM MgCl, 10 mM KH2PO4, 500 μM ZnSO4) and protein concentration determined (BCA Protein Assay, ThermoFisher, Waltham, Mass.). […]
# (§1) To assess the binding of unlabeled Cef with MBLAC1 in cell and tissue lysates, BSI was utilized. […] RI changes are quantified by comparing fringe shifts between test and reference samples.
# (§2) Lysates for BSI contained Cef at concentrations of 0 μM, 5 μM, and 50 μM and concentrations of either 300 μg/mL (mouse cell lysates) or 100 μg/mL (human cell lysates and mouse brain lysates) protein. […] To obtain BSI signals, the sample with 0 μM Cef was injected into the channel in a stop-flow manner using a vacuum and allowed to reach temperature and pressure equilibrium (˜10 sec) at which point the phase value (BSI signal) was measured for 20 sec. Specific BSI signal was determined by subtracting Cef only signal from Cef-lysate signals. […]
# human MBLAC1 = target: T2, human MBLAC1 (Homo sapiens, UniProt A4D2B0); assay: Backscattering interferometry (BSI) binding to lysates of TET-induced T-REx cells expressing human MBLAC1; settings: 5 μM and 50 μM
# T2 construct: mouse and human Mblac1 cDNAs were subcloned into pcDNA5/FRT/TO vector; expressed in transfected cells; cell lysate
# T2 sequence (A4D2B0 1-266): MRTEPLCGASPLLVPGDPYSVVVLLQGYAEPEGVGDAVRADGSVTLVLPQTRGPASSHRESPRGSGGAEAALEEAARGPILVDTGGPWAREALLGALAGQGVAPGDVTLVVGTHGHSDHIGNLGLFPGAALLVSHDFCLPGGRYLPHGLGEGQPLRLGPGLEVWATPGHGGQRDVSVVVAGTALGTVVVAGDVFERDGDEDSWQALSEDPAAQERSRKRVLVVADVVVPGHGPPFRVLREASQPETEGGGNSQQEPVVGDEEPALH
# Procedure: (§3) HEK Flp-In T-REx-293 cells (T-REx) expressing mouse or human MBLAC1 proteins were generated per manufacturer's (ThermoFisher, Waltham, Mass., USA) instructions. Briefly, mouse and human Mblac1 cDNAs were subcloned into pcDNA5/FRT/TO vector and then co-transfected with pOG44 plasmid (encoding Flp recombinase) by lipid based transfection into Flp-In T-REx-293 cells using TransIT-LT1 (Mirus, Madison, Wis.). Stable integrants were isolated following selection with 100 μg/ml hygromycin. Expression of MBLAC1 protein was induced by addition of 1 μg/mL tetracycline (TET) to the media. […]
# as §1, §2
# mouse MBLAC1 = target: T3, mouse MBLAC1 (Mus musculus, UniProt Q8BWY4); assay: Backscattering interferometry (BSI) binding of unlabeled Cef to lysates of TET-induced T-REx cells expressing mouse MBLAC1; settings: 5 μM and 50 μM
# T3 construct: mouse and human Mblac1 cDNAs were subcloned into pcDNA5/FRT/TO vector; expressed in transfected cells; cell lysate
# T3 sequence (Q8BWY4 1-260): T1 sequence (Q8BWY4 1-260)
# Procedure: as §3, §1, §2
# MBLAC1 [2] = assay: MBLAC1 pulldown with Cef-conjugated CN-Br Sepharose beads, competition by free Cef; format: binding
# [3] = test system: MBLAC1 WT and MBLAC1 KO mice; assay: Effect of repeated Cef on cocaine-induced locomotion, open field; format: in vivo, mouse; settings: Cef 200 mg/kg IP once daily 10 days, cocaine 10 mg/kg 24 h later
# Procedure: Animals: All mice were used in accordance with protocols approved by the Florida Atlantic University Institutional Animal Care and Use Committee. Mice were group-housed on a 12 h/12 h light/dark cycle and given ad libitum access to food and water. Breeding was accomplished with mating of heterozygous males with heterozygous females. Male and female mice 11-13 weeks old at the start of the experiment were used in testing the effects of repeated ceftriaxone on response to cocaine in the open field assay. Data from males and females were combined.
# Repeated Cef treatment/acute cocaine administration: MBLAC1 wild-type (WT, MBLAC1^+/+) and knockout mice (MBLAC1^−/−) were used in this experiment. Mice were injected IP once daily for 10 days with 200 mg/kg ceftriaxone (CEF) or saline. Twenty-four hours following the last CEF injection, mice were injected with 10 mg/kg cocaine or saline followed immediately by testing in open field activity chambers (Med Associates, Fairfax, Vt.) for 60 minutes. Locomotor activity was evaluated by photocells in the X, Y and Z dimensions. Horizontal beam breaks, vertical beam breaks, and repetitive movements were recorded and measures, including distance traveled, vertical rearing and stereotypic counts, were calculated. Data were analyzed in 5 min time bins within session, and for the first 30 min following cocaine injection. Data were analyzed by two-way ANOVA repeated measures, with time bin as the repeated measure, or by two-way ANOVA for 30 min cumulated data. At the end of behavior, mice were euthanized by CO2.
# The methods were performed essentially as described in Tallarida et al. Neurosci Lett vol. 556, p. 155-159, 2013.
SMILES,BSI binding signal (MBLAC1 [1]; mouse frontal cortex lysate immunodepleted of MBLAC1 with antibody #80),"BSI binding signal (MBLAC1 [1]; mouse frontal cortex lysate, 5 μM and 50 μM)",BSI binding signal (human MBLAC1),BSI binding signal (mouse MBLAC1),"Mean reduction in MBLAC1 binding to immobilized Cef (MBLAC1 [2]; 50 μM free Cef preincubated with lysate, n=6) [%]",MBLAC1 capture by Cef-conjugated beads (MBLAC1 [2]; lysates preincubated with Cef 50 μM),"Effect on cocaine-induced locomotion (ambulatory distance, first 30 min) ([3]; MBLAC1 KO mice)","Effect on cocaine-induced locomotion (ambulatory distance, first 30 min) ([3]; MBLAC1 KO mice, listed as CEF)","Effect on cocaine-induced locomotion (ambulatory distance, first 30 min) ([3]; MBLAC1 WT mice)","Effect on cocaine-induced locomotion (ambulatory distance, first 30 min) ([3]; MBLAC1 WT mice, listed as CEF)"
"CO/N=C(\C(=O)N[C@@H]1C(=O)N2C(C(=O)O)=C(CSc3nc(=O)c(=O)[nH]n3C)CS[C@H]12)c1csc(N)n1 [Cef, ceftriaxone]",eliminated Cef binding activity; also recorded: the Cef binding signal was abolished,shows binding signal with Cef,"concentration-dependent, heat-sensitive BSI binding signals; also recorded: significant, dose-dependent BSI signals","concentration-dependent, heat-sensitive BSI binding signals; also recorded: significant, dose-dependent BSI signals; also recorded: Significant dose-dependent BSI signals",52.4±9.3,significantly diminished MBLAC1 capture,no ability to attenuate cocaine actions,had no effect on the response to cocaine,the locomotor activating effects of cocaine were lost,completely blocked the effects of cocaine
"CC(=O)OCC1=C(C(=O)O)N2C(=O)[C@@H](NC(=O)CCC[C@@H](N)C(=O)O)[C@H]2SC1 [CephC, cephalosporin C]",–,–,–,non-significant reduction in BSI signal; also recorded: a significant CephC BSI signal (FIG. 3D) was not seen,–,–,–,–,–,–
